This passage reports IC50, EC50 and AC50 results from ChEMBL document CHEMBL1201862, “PubChem BioAssay data set” (2004).

Assay [1] addresses T1, Calpain-2 catalytic subunit (Sus scrofa, UniProt P43367).
T1 sequence (P43367 whole entry): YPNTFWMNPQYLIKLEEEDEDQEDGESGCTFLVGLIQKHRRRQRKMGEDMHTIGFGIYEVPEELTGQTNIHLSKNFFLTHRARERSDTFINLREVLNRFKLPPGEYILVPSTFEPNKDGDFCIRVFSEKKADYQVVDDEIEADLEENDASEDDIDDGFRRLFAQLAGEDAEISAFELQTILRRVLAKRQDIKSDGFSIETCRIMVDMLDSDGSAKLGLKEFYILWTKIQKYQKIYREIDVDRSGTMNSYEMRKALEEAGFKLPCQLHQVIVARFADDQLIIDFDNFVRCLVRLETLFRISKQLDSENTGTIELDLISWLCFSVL
Kind of assay: pig calpain II inhibitor potency, dose response, biochemical, fluorogenic peptide substrate (AID 1420). The format is functional.

Assay [2] in a line: cytotoxicity toward DRD oncogenic fibroblasts, dose response, cell-based, non-viral oncogenic, luminescence (AID 1934). The settings on record: Homo sapiens. The format is functional.
Assay [3] concerns BJ. Kind of assay: cytotoxicity toward BJ-TERT fibroblasts, dose response, cell-based, RAS-independent, luminescence (AID 1933). The format is functional. The settings on record: Homo sapiens.
Assay [4] concerns BJ. Kind of assay: cells. Particulars: Homo sapiens. The format is functional, cell-based.
Assay [5] has as its system BJ. Description: cytotoxicity toward BJ-TERT-LT-ST fibroblasts, dose response, cell-based, RAS-independent, luminescence (AID 1935).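 Note: BJ fibroblasts immortalized with TERT plus LT and ST oncogenes.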 It is filed as functional. The settings on record: Homo sapiens.
The nature of assay [6]: ZM109 Env clade C HIV-1 fusion inhibitors, dose response, HeLa effector, CEM target cells, luciferase, cherry-pick (AID 652058). It is filed as functional, cell-based.
A short description of assay [7]: inhibitors of clade B AD8 Env fusion, dose response, cell-based, cherry-pick (AID 652062).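 Note: luciferase signal from cell-cell fusion driven by HIV-1 clade B AD8 Env; potency is for inhibitors of fusion seen as a drop in luminescence.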 The format is functional.
Assay [8] can be described thus: inhibitors of HIV Env-driven cell fusion, dose response, cherry-pick (AID 652057). It is filed as functional, cell-based.
Another assay addresses Fatty acid synthase (Homo sapiens, UniProt P49327). Kind of assay: FAS thioesterase domain inhibitors, dose response, biochemical, kinetic fluorescence intensity (AID 624326).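 Note: rate of fluorescence rise from hydrolysis of a fluorogenic O-methyl fluorescein ester substrate.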 It is filed as functional.
Assay [9] concerns the target T2, Heat shock factor protein 1 (Mus musculus, UniProt P38532).
T2 sequence (P38532 whole entry): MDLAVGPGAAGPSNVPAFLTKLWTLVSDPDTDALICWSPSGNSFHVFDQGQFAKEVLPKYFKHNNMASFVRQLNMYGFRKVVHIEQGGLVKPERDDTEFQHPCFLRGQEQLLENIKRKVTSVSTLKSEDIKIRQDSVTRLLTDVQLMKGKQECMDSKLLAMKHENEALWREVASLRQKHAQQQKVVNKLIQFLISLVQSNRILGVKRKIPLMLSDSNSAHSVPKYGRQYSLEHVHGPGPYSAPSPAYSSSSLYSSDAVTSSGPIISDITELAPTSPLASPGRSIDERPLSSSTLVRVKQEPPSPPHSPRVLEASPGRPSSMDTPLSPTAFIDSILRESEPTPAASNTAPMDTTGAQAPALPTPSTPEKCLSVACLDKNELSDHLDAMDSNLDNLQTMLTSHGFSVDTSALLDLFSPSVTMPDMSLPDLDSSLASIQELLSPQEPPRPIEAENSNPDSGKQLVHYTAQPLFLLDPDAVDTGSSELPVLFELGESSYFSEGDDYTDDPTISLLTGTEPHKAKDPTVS
Description: HSF1 potentiators in luciferase reporter cells, confirmation, cell-based, NIH3T3, luminescence, dose retest (AID 435004).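 Note: stress induced by proteasome inhibitor MG132 added 30 min after compound; luciferase reporter driven by HSF1 response element in NIH3T3 cells; actives raise luminescence as potentiators of the MG132 stress response.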 The format is functional.

Assay [10] in a line: Luminescence Cell-Based Dose Retest to Confirm Inhibitors of Cancer Stem Cells. [Related pubchem assays (depositor defined):AID2717, AID2721]. The format is functional. Particulars: Homo sapiens.
The nature of assay [11]: C. albicans growth with fluconazole, confirmation, fluorescence, retest (AID 2467). The format is functional, cell-based.
Assay [12] is described as follows: NIH-3T3 fibroblast cytotoxicity, dose response, cytotoxicity control, cell-based, fluorescence, Alamar Blue, secondary assay (AID 2327).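 Note: NIH-3T3 mouse fibroblasts cultured with fluconazole at 8 µg/mL.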 The format is functional.

Calls of active or inactive are those of the source.

Chain of Fatty acid synthase (P49327 whole entry, the tested form may be a part): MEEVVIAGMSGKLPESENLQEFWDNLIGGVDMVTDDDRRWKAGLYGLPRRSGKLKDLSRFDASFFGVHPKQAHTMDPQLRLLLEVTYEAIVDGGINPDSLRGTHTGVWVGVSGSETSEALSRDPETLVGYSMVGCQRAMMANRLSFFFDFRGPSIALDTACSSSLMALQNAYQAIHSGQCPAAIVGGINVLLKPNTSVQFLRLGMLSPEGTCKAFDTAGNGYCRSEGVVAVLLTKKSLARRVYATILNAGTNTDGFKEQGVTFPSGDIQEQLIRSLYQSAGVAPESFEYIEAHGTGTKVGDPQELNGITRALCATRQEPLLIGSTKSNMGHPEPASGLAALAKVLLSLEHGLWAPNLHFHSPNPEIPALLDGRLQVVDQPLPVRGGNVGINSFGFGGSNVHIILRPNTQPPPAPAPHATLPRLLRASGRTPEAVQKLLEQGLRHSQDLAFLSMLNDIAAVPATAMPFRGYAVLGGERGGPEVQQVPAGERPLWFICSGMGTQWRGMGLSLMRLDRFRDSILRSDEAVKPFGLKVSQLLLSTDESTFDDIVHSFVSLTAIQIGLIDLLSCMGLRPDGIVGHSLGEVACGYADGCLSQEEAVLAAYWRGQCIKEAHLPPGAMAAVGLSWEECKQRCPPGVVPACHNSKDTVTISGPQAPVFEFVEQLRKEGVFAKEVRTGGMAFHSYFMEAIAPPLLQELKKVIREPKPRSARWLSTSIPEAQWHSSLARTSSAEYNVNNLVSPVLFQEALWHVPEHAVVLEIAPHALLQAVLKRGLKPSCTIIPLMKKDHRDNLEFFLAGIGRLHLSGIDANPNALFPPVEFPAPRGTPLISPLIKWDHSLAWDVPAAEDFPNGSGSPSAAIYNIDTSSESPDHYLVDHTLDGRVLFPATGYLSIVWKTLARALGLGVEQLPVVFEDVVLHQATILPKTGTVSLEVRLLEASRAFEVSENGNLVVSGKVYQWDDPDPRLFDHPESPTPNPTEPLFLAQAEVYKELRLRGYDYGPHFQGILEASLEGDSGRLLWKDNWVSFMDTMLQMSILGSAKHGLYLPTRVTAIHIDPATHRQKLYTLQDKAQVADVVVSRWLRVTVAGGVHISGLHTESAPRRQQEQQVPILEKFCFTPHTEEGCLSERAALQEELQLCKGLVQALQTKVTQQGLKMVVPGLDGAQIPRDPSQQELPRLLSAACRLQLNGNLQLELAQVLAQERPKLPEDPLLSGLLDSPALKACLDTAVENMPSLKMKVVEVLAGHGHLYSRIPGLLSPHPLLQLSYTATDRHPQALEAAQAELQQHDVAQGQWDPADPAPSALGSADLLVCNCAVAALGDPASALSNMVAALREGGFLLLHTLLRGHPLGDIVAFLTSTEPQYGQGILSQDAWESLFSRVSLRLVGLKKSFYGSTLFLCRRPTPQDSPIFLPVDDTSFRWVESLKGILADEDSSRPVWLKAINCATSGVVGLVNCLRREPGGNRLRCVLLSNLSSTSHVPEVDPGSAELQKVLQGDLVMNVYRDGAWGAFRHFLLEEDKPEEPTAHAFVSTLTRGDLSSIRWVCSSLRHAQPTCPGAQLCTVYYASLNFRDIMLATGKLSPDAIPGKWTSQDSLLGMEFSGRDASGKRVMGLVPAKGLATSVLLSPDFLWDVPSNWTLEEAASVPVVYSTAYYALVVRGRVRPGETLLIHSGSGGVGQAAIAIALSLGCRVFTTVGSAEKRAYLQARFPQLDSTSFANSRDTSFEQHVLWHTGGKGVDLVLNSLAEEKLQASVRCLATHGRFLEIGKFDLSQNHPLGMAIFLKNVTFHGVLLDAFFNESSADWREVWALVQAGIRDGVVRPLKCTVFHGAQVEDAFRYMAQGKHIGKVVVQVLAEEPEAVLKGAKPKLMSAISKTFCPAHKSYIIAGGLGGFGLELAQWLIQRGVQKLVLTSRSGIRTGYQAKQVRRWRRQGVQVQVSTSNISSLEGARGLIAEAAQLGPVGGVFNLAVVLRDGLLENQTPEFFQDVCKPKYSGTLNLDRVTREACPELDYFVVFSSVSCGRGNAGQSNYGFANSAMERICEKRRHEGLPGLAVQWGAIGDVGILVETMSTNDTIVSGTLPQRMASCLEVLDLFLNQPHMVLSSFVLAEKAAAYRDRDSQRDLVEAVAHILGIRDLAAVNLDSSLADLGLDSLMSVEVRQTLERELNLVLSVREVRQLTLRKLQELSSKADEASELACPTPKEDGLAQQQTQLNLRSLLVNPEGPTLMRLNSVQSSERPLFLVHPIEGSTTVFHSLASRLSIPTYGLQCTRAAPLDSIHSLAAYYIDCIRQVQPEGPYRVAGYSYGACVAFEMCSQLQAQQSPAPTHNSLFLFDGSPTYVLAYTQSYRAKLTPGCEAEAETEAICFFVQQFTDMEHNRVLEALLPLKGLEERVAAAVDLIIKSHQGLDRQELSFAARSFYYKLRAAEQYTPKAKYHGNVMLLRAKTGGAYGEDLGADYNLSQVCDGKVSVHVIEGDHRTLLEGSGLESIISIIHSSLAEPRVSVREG

Take `O=C1OC(c2cccc([N+](=O)[O-])c2)C2(CCCC2)C(=O)C12CCCCC2` (stereo not drawn): in assay [1], the IC50 was > 50 µM (not active).
Consider `O=C(Cc1ccc(N2CCNC2=O)cc1)N1CCCC(Nc2ccc(F)c(F)c2)C1` (stereo not drawn), for which the EC50 in assay [2] was 14.9 µM (inconclusive); in the assay with BJ [3] it was 9.17 µM (inconclusive); in the assay with BJ [4] it was 3.98 µM (active); in the assay with BJ [5], 4.14 µM (active).
With `CO[C@H]1CN(C)C(=O)c2ccc(NC(=O)C3CCC3)cc2OC[C@@H](C)N(CC2CCCCC2)C[C@@H]1C`, the figures for the AC50 in assay [6], in [7] and in [8] were 3.18 µM (active), 19.9 µM (active) and 10.1 µM (active), respectively.
As to `CCN1/C(=C\C=C2\C(=O)N(c3ccccc3)C(=S)N2C)Sc2ccccc21`, the half-maximal inhibitory concentration (IC50) in [1] is > 50 µM (not active).
Consider `C[C@H]1CN([C@@H](C)CO)S(=O)(=O)c2ccc(Br)cc2O[C@H]1CN(C)S(=O)(=O)c1ccc(F)cc1`, for which the figures for the AC50 in assay [6], in [7] and in assay [8] were 3.04 µM (active), 29.7 µM (active) and 2.84 µM (active), respectively.
Turning to `CNS(=O)(=O)c1ccc2c(c1)C(=O)c1cc(S(=O)(=O)NC)ccc1CC2`, the IC50 at Fatty acid synthase was 0.865 µM (active).
As for `COc1ccc(-n2c(SCC(=O)Nc3ncc(Cl)cc3Cl)nc3ccccc32)cc1`, the EC50 in [2] was 137 µM (active); in the assay with BJ [3], 27.8 µM (active); in the assay with BJ [4], 139 µM (active); with BJ [5], > 150 µM (inconclusive).
For `O=C(Nc1cccc2ccccc12)/C(Cl)=C/c1ccccc1`, the IC50 in assay [1] is 8.93 µM (not active).
In the case of `O=C(CCCCCN1C(=O)c2ccccc2C1=O)Nc1ccc(F)cc1`, the IC50 in assay [1] is listed as 11.1 µM (not active).
Same read-out and setting: under `CSc1nc(Oc2ccccc2)c2sccc2n1` stands < 0.4 µM (not active); under `Nn1c(Cc2cccc3ccccc23)nnc1SCc1ccc(Cl)c(Cl)c1`, < 0.4 µM (not active); under `CCc1ccc(NC(=O)c2noc(C(C)C)c2[N+](=O)[O-])cc1`, 6.83 µM (not active).
Regarding `CCC(C)C(NC(=O)c1ccc(Cl)cc1)C(=O)Nc1cccnc1` (stereo not drawn), the IC50 in assay [1] is recorded as 7.69 µM (not active).
For `COc1ccc(/C=C(\C#N)c2c[nH]c3ccccc23)cc1`, the EC50 was 0.441 µM (active) in [2]; 39.2 µM (active) in [9]; 0.706 µM (inconclusive) in the assay on BJ [3]; 20 µM (inconclusive) with BJ [4]; 1.76 µM (inconclusive) in the assay on BJ [5]. Further, in assay [10], the AC50 is 0.203 µM (active).
`Cc1cc2cc(CN=C(S)NC3CCCCC3)ccc2[nH]1`: the IC50 in [1] is recorded as 34.6 µM (not active).
On to `COc1ccc(-c2cc(C(=O)N3CCCc4ccccc43)no2)cc1`, for which the IC50 in assay [1] was 13.4 µM (not active).
Take `Cc1ccc2cc(CCNC(=O)c3cc4ccccc4o3)c(O)nc2c1C`: the IC50 in assay [1] is listed as > 50 µM (not active).
Turning to `C[C@@H]1CN([C@H](C)CO)S(=O)(=O)c2ccc(-c3cccc(F)c3)cc2O[C@@H]1CN(C)S(=O)(=O)c1ccccc1`, the AC50 was 2.78 µM (active) in [6], 31.6 µM (active) in assay [7] and 3.28 µM (active) in assay [8].
On to `Brc1ccc(-c2nnc3sc(CN4CCN(c5ccccc5)CC4)cn23)cc1`, for which the EC50 is 2.14 µM (active) in assay [11]; > 150 µM (not active) in assay [2]; > 150 µM (not active) in the assay on BJ [3]; > 150 µM (inactive) in assay [12]; > 150 µM (not active) with BJ [4]; > 150 µM (not active) in the assay with BJ [5].
For `CCOc1ccc(CC(=O)OCn2nnc3ccccc3c2=O)cc1`, in assay [1], the IC50 is 24.4 µM (not active).
For the compound `CC(C)Cn1c(S)nnc1-c1csc(C(C)C)c1`, the 50% inhibitory concentration (IC50) in assay [1] was 10.8 µM (active).
